Measured values from US8722035B2, “Formulations including digestive enzymes, polysorbate-based surfactants and probiotics” (Master Supplements, Inc., priority 2007, dated 2014).

How the values were obtained:
[1] = test system: Lactobacillus acidophilus LA-1; test: Growth of Lactobacillus acidophilus LA-1 in broth, plated on MRS agar (Examples 1 and 4); assay type: cell-based
Description: • I) Lactobacillus acidophilus LA-1 was inoculated at one (1) million CFU/ml into 500 ml of sterile broth medium conta Ming 2% casein, 2% corn starch, 0.1% calcium carbonate, 0.1% magnesium carbonate, and 0.05% yeast extract (Difco); a medium in which it is difficult to achieve significant Lactobacillus growth but which contains typical nutrients found in human diets. The inoculated broth (contained in 1 L Erlenmeyer flasks) was incubated at 37 C for 24 hours and then plated on MRS auar to determine CFU/ml. Result (average of triplicate samples): 12 million CFU/ml. • II) The test in (I) was repeated where the medium also contained 0.1% Tween-80. Result: 14 million CFU/ml. • III) The test in (I) was repeated where the medium was pre-treated with digestive enzymes for 24 hours prior to sterilization at 121 C for 20 minutes at 15 psi. The pre-treatment involved adding 250 mg of a lactogenic enzyme mixture containing papain (10,000 TU), bromelain (50 GDU), alpha-amylase (1,000 SKB) and glucoamylase (2.5 AG). Result: 87 million CFU/ml • IV) The test in (III) was repeated where 0.1% Tween-80 (as DP35) was added during the enzyme pre-treatment procedure. […]

[2] = test system: Lactobacillus rhamnosus HN001; test: Growth of Lactobacillus rhamnosus HN001 in broth, plated on MRS agar (Example 2); assay type: cell-based; details: procedures of Example 1, untreated Test I 6 million CFU/ml
Description: • I) Lactobacillus acidophilus LA-1 was inoculated at one (1) million CFU/ml into 500 ml of sterile broth medium conta Ming 2% casein, 2% corn starch, 0.1% calcium carbonate, 0.1% magnesium carbonate, and 0.05% yeast extract (Difco); a medium in which it is difficult to achieve significant Lactobacillus growth but which contains typical nutrients found in human diets. The inoculated broth (contained in 1 L Erlenmeyer flasks) was incubated at 37 C for 24 hours and then plated on MRS auar to determine CFU/ml. Result (average of triplicate samples): 12 million CFU/ml. • II) The test in (I) was repeated where the medium also contained 0.1% Tween-80. Result: 14 million CFU/ml. • III) The test in (I) was repeated where the medium was pre-treated with digestive enzymes for 24 hours prior to sterilization at 121 C for 20 minutes at 15 psi. The pre-treatment involved adding 250 mg of a lactogenic enzyme mixture containing papain (10,000 TU), bromelain (50 GDU), alpha-amylase (1,000 SKB) and glucoamylase (2.5 AG). Result: 87 million CFU/ml • IV) The test in (III) was repeated where 0.1% Tween-80 (as DP35) was added during the enzyme pre-treatment procedure.
• The procedures of Example 1 were repeated with Lactobacillus rhamnosus HN001 substituted for Lactobacillus acidophilus LA-1. The results are as follows: Test I): 6 million CFU/ml. Test II): 7.5 million CFU/ml. Test III): 62 million CFU/ml.

[3] = test system: Bifidobacterium lactis BL04; test: Anaerobic growth of Bifidobacterium lactis BL04 in broth, plated on MRS agar plus L-cysteine HCl (Example 5); assay type: cell-based; details: inoculum 2 million CFU/ml, casein/rye/asparagus/barley broth, anaerobic 37 C, 24 hours, 0.025% Tween-80, 250 mg enzyme mixture, 24 h pre-treatment, untreated Test I 8 million CFU/ml
Description: • I) Bifidobacterium lactis BL04 was inoculated at two (2) million CFU/ml into 500 ml of sterile broth medium containing 2% casein, 1% rye flour, 1% asparagus powder (ground freeze-dried asparagus), 1% barley flour, 0.1% calcium carbonate, 0.1% magnesium carbonate, and 0.05% yeast extract (Difco); a medium in which it is generally difficult to achieve significant Bifidobacteria growth but contains typical nutrients fbund in human diets. The inoculated broth (contained in 1 L Erlenmeyer flasks) was incubated anaerobically at 37 C for 24 hours and then plated on MRS agar plus L-cysteine HCl, to determine CFU/ml (plates were incubated anaerobically), Result (average of triplicate samples): 8 million CFU/ml. • II) The test in I) was repeated where the medium also contained 0.025% Tween-80. Result: 3 million CFU/ml. • III) The test in I) was repeated where the medium was pre-treated with digestive enzymes for 24 hours prior to sterilization at 121 C for 20 minutes at 15 psi. The pre-treatment involved adding 250 mg of a bifidogenic enzyme mixture containing cellulase-TL (1,000 CU), hemicellulase (1,000 HCU), beta-glucanase (50 BGU), papain (10,000 TU) and bromelain (50 GDU). Result 74 million CFU/ml. • IV) The test in III) was repeated where 0.025% Tween-80 was added during the enzyme pre-treatment procedure.

[4] = test system: Bifidobacterium bifidum BB-12; test: Growth of Bifidobacterium bifidum BB-12 in broth (Example 6); assay type: cell-based; details: untreated Test I 11 million CFU/ml
[5] = test system: Lactobacillus paracasei F-19; test: Growth of Lactobacillus paracasei F-19 in broth, plated on MRS agar (Example 3); assay type: cell-based; details: procedures of Example 1, untreated Test I 14 million CFU/ml
[6] = hydrophile-lipophile balance, designated from 1 to 20; cited from earlier work

Compound: polyoxyethylene sorbitan monostearate [Tween-60]
- viable count of L. acidophilus LA-1 after incubation ([1]; Example 4, procedures of Example 1 with different enzyme mixture and Tween-60 in place of Tween-80, untreated Test I 10 million CFU/ml): 9 million CFU/ml

Compound: CCCCCCCC/C=C\CCCCCCCC(=O)OCCOCC(OCCO)C1OCC(OCCO)C1OCCO (stereo not shown) [Tween-80, polyoxyethylene sorbitan monooleate]
- viable count of L. rhamnosus HN001 after incubation [2]: 7.5 million CFU/ml
- viable count of Bifidobacterium lactis BL04 after incubation [3]: 3 million CFU/ml
- viable count of Bifidobacterium bifidum BB-12 after incubation [4]: 5 million CFU/ml
- viable count of L. paracasei F-19 after incubation [5]: 19 million CFU/ml
- HLB [6]: 15.0
- viable count of L. acidophilus LA-1 after incubation ([1]; Example 1, inoculum 1 million CFU/ml, casein/corn starch broth, 37 C, 24 hours, 0.1% Tween-80, 250 mg enzyme mixture, 24 h pre-treatment, untreated Test I 12 million CFU/ml): 14 million CFU/ml
